From publication PMC9414972, “α-Glucosidase and α-Amylase Inhibitory Potentials of Quinoline–1,3,4-oxadiazole Conjugates Bearing 1,2,3-Triazole with Antioxidant Activity, Kinetic Studies, and Computational Validation” (Pharmaceuticals, 2022)
Where two headings read alike, the source gives them in different places.

Experiments:
[1] = Nitric oxide (NO) scavenging activity
Experimental: The screening of the present compound series for NO radical scavenging activity (Table 2) identified excellent NO scavengers.
The antioxidant capacity of the compounds to scavenge nitric oxide radicals was determined using a modified version of the protocol by Kurian et al.. Briefly, 250 μL of sodium nitroprusside (10 mM) prepared in sodium phosphate buffer (pH 7.4) was added to 500 μL of the compound solution (62.5–500 μM) or distilled water (control). The resulting solution was incubated at 37 °C for 2 h. Then, 250 μL of Griess reagent was added to the reaction mixture before the absorbance was measured at 546 nm. The nitric oxide scavenging activity of the compounds was calculated with the formula: Nitric oxide scavenging (%)=1−Absorbance of compound/Absorbance of control×100

[2] = Ferric reducing antioxidant power (FRAP)
Experimental: FRAP is a ferric (Fe^3+) to ferrous (Fe^2+) ions reduction assay that measures a compound’s electron-donating capacity, i.e., the antioxidant’s reducing power.
The mixture was incubated at 50 °C for 20 min, followed by acidification with 100 μL trichloroacetic acid (10%). After centrifugation at 3500 rpm for 10 min, 200 μL of the supernatant was transferred into another test tube containing 200 μL of distilled water and 0.8 mL of FeCl3 (0.1%). Finally, the absorbance was read at 700 nm, and the total reductive antioxidant power was calculated thus: Ferric reducing antioxidant power (%)=Absorbance of compound/Absorbance of 500µM gallic acid×100

[3] = target: T1, porcine pancreatic amylase (Sus scrofa, UniProt P00690); experiment: α-Amylase inhibitory activity (starch/DNS); type: biochemical
T1 construct: purchased Merck
T1 sequence (P00690 16-511): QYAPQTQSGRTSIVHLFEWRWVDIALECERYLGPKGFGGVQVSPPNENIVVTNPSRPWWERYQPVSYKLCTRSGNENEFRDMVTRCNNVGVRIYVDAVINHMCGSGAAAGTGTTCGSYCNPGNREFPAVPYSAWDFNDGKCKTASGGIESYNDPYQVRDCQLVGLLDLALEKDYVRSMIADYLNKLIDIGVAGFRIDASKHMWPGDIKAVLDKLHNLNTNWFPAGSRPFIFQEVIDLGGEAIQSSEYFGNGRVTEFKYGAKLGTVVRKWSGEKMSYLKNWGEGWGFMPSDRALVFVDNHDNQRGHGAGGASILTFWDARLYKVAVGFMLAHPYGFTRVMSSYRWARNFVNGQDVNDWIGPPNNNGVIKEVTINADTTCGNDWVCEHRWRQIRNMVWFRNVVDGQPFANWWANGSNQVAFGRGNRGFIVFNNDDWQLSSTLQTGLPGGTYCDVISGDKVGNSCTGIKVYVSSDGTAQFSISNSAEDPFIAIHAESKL
Experimental: α-Amylase inhibitory activity was determined according to Ibitoye et al. with slight modifications. […] The reaction in the mixture was terminated with a 1 mL dinitrosalicylate reagent before boiling for 10 min. The cooled mixture was diluted with 5 mL distilled water, and the absorbance was read at 540 nm. The inhibitory activity was calculated using the formula below: % Inhibition=1−Absorbance of compound/Absorbance of control×100

[4] = target: T2, α-glucosidase (Saccharomyces cerevisiae, UniProt P38158); experiment: biochemical
T2 construct: purchased Merck
T2 sequence (P38158 whole entry): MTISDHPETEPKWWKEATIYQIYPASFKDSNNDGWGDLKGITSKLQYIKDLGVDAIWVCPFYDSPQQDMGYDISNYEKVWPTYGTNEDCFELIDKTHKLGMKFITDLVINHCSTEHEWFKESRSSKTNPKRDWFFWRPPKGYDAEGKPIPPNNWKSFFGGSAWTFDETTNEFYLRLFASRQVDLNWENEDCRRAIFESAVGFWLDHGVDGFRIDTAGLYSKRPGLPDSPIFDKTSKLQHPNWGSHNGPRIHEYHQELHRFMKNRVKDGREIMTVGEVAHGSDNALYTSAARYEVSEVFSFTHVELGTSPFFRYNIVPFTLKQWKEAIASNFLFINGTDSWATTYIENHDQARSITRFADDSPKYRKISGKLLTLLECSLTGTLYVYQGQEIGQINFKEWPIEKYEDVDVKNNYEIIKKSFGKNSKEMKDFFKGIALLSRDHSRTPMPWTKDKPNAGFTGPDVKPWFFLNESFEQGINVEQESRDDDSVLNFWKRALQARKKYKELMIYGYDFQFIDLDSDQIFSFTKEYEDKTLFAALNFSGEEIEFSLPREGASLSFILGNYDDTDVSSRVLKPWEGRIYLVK
Experimental: The α-glucosidase inhibitory activity was evaluated using a previous method with slight modifications.

[5] = DPPH radical scavenging activity
Experimental: The DPPH assay is used conventionally to quantify a compound’s ability to trap free radicals.
The compounds were evaluated for their ability to scavenge stable DPPH radicals, using a modification of the method by Turkoglu et al..

[6] = nitric oxide radical scavenging, 37 °C, 2 h
[7] = ferric reducing antioxidant power
[8] = porcine pancreatic amylase, starch, pH 6.9, 25 °C, read-out: IC50 α-Amylase
[9] = pNPG substrate, pH 6.8, 37 °C, read-out: IC50 α-Glucosidase
[10] = DPPH radical scavenging, 30 min, 25 °C

Clc1ccc(-n2cc(CSc3nnc(COc4cccc5cccnc45)o3)nn2)c(Cl)c1 [12r, 2-{[(1-(2,4-Dichlorophenyl)-1H-1,2,3-triazol-4-yl)methyl]thio}-5-[(quinolin-8-yloxy)methyl]-1,3,4-oxadiazole]
IC50 [1, 6]: > 500 µM | IC50 [2, 7]: > 500 µM | melting point: 112 to 116 °C | IC50 [3, 8]: > 500 µM | IC50 [4, 9]: 48.5 µM | IC50 [5, 10]: 101 µM

Clc1ccc(Cn2cc(CSc3nnc(COc4cccc5cccnc45)o3)nn2)cc1 [12d, 2-{[(1-(4-Chlorobenzyl)-1H-1,2,3-triazol-4-yl)methyl]thio}-5-[(quinolin-8-yloxy)methyl]-1,3,4-oxadiazole]
IC50 [1, 6]: > 500 µM | IC50 [2, 7]: > 500 µM | melting point: 92 to 96 °C | IC50 [3, 8]: > 500 µM | IC50 [4, 9]: 38.1 µM | IC50 [5, 10]: 80.4 µM

BrCCSc1nnc(COc2cccc3cccnc23)o1 [4h, 2-[(2-Bromoethyl)thio]-5-[(quinolin-8-yloxy)methyl]-1,3,4-oxadiazole]
IC50 [1, 6]: > 500 µM | IC50 [2, 7]: > 500 µM | IC50 [5, 10]: 75.4 µM

Cc1cccc(C)c1-n1cc(CSc2nnc(COc3cccc4cccnc34)o2)nn1 [12t, 2-{[(1-(2,6-Dimethylphenyl)-1H-1,2,3-triazol-4-yl)methyl]thio}-5-[(quinolin-8-yloxy)methyl]-1,3,4-oxadiazole]
IC50 [1, 6]: > 500 µM | IC50 [2, 7]: > 500 µM | melting point: 110 to 116 °C | IC50 [3, 8]: > 500 µM | IC50 [4, 9]: 44.1 µM | IC50 [5, 10]: 90 µM

CCSc1nnc(COc2cccc3cccnc23)o1 [4a, 2-(Ethylthio)-5-[(quinolin-8-yloxy)methyl]-1,3,4-oxadiazole]
IC50 [1, 6]: 2.67 µM | IC50 [2, 7]: > 500 µM | melting point: 80.7 to 83.1 °C | IC50 [3, 8]: > 500 µM | IC50 [4, 9]: 41.6 µM | IC50 [5, 10]: 70.9 µM

Fc1ccc(Cn2cc(CSc3nnc(COc4cccc5cccnc45)o3)nn2)cc1F [12j, 2-{[(1-(3,4-Difluorobenzyl)-1H-1,2,3-triazol-4-yl)methyl]thio}-5-[(quinolin-8-yloxy)methyl]-1,3,4-oxadiazole]
IC50 [1, 6]: > 500 µM | IC50 [2, 7]: > 500 µM | IC50 [3, 8]: > 500 µM | IC50 [4, 9]: 59 µM | IC50 [5, 10]: 102 µM

Brc1ccc(-n2cc(CSc3nnc(COc4cccc5cccnc45)o3)nn2)cc1 [12n, 2-{[(1-(4-Bromophenyl)-1H-1,2,3-triazol-4-yl)methyl]thio}-5-[(quinolin-8-yloxy)methyl]-1,3,4-oxadiazole]
IC50 [1, 6]: > 500 µM | IC50 [2, 7]: > 500 µM | melting point: 126 to 132 °C | IC50 [3, 8]: > 500 µM | IC50 [4, 9]: 35.2 µM | IC50 [5, 10]: 92.2 µM

Brc1ccc(CSc2nnc(COc3cccc4cccnc34)o2)cc1 [4m, 2-[(4-Bromobenzyl)thio]-5-[(quinolin-8-yloxy)methyl]-1,3,4-oxadiazole]
IC50 [1, 6]: > 500 µM | IC50 [2, 7]: > 500 µM | melting point: 120.9 to 124.1 °C | IC50 [3, 8]: > 500 µM | IC50 [4]: 28.3 µM | IC50 [5, 10]: 85.2 µM

Brc1cccc(CSc2nnc(COc3cccc4cccnc34)o2)c1 [4q, 2-[(3-Bromobenzyl)thio]-5-[(quinolin-8-yloxy)methyl]-1,3,4-oxadiazole]
IC50 [1, 6]: > 500 µM | IC50 [2, 7]: > 500 µM | IC50 [3, 8]: 427 µM | IC50 [4, 9]: 29.6 µM | IC50 [5, 10]: 78.6 µM

C=CCSc1nnc(COc2cccc3cccnc23)o1 [4f, 2-(Allylthio)-5-[(quinolin-8-yloxy)methyl]-1,3,4-oxadiazole]
IC50 [1, 6]: > 500 µM | IC50 [2, 7]: > 500 µM | IC50 [3, 8]: > 500 µM | IC50 [4, 9]: 34.5 µM | IC50 [5, 10]: 72.1 µM

O=C1O[C@H]([C@@H](O)CO)C(O)=C1O [Ascorbic acid, reference compound]
IC50 [2, 7]: 103 µM

CCCCCSc1nnc(COc2cccc3cccnc23)o1 [4d, 2-(Pentylthio)-5-[(quinolin-8-yloxy)methyl]-1,3,4-oxadiazole]
IC50 [1, 6]: 457 µM | IC50 [2, 7]: > 500 µM | melting point: 84.6 to 90.1 °C | IC50 [3, 8]: > 500 µM | IC50 [4, 9]: 46.7 µM | IC50 [5, 10]: 82.9 µM

Sc1nnc(COc2cccc3cccnc23)o1 [compound 3, 5-[(Quinolin-8-yloxy)methyl]-1,3,4-oxadiazole-2-thiol]
IC50 [1, 6]: 464 µM | IC50 [2, 7]: > 500 µM | IC50 [3, 8]: > 500 µM | IC50 [4, 9]: 34.7 µM | IC50 [5, 10]: 25.2 µM

Clc1ccc(Cn2cc(CSc3nnc(COc4cccc5cccnc45)o3)nn2)c(Cl)c1 [12i, 2-{[(1-(2,4-Dichlorobenzyl)-1H-1,2,3-triazol-4-yl)methyl]thio}-5-[(quinolin-8-yloxy)methyl]-1,3,4-oxadiazole]
IC50 [1, 6]: > 500 µM | IC50 [2, 7]: > 500 µM | melting point: 124 to 130 °C | IC50 [3, 8]: > 500 µM | IC50 [4, 9]: 42.8 µM | IC50 [5, 10]: 95.4 µM

O=C(O)c1cc(O)c(O)c(O)c1 [Gallic acid, reference compound]
IC50 [1, 6]: 729 µM | IC50 [2, 7]: 17.9 µM | IC50 [5, 10]: 26.6 µM

Oc1cccc2cccnc12 [8-HQ, 8-hydroxyquinoline, reference compound]
IC50 [1]: 184 µM | IC50 [2]: > 500 µM | IC50 [3]: > 500 µM | IC50 [4]: 29.3 µM | IC50 [5]: 51.8 µM

CCCCCn1cc(CSc2nnc(COc3cccc4cccnc34)o2)nn1 [12a]
IC50 [1, 6]: > 500 µM | IC50 [2, 7]: > 500 µM | melting point: 90 to 94 °C | IC50 [3, 8]: > 500 µM | IC50 [4, 9]: 35.2 µM | IC50 [5, 10]: 90 µM

Fc1cccc(CSc2nnc(COc3cccc4cccnc34)o2)c1 [4o, 2-[(3-Fluorobenzyl)thio]-5-[(quinolin-8-yloxy)methyl]-1,3,4-oxadiazole]
IC50 [1, 6]: > 500 µM | IC50 [2, 7]: > 500 µM | IC50 [3, 8]: > 500 µM | IC50 [4, 9]: 48.8 µM | IC50 [5, 10]: 76.9 µM

CCCCCCn1cc(CSc2nnc(COc3cccc4cccnc34)o2)nn1 [12b, 2-{[(1-Hexyl-1H-1,2,3-triazol-4-yl)methyl]thio}-5-[(quinolin-8-yloxy)methyl]-1,3,4-oxadiazole]
IC50 [1, 6]: > 500 µM | IC50 [2, 7]: > 500 µM | IC50 [3, 8]: > 500 µM | IC50 [4, 9]: 36.7 µM | IC50 [5, 10]: 80 µM

c1ccc(Cn2cc(CSc3nnc(COc4cccc5cccnc45)o3)nn2)cc1 [12c, 2-{[(1-Benzyl-1H-1,2,3-triazol-4-yl)methyl]thio}-5-[(quinolin-8-yloxy)methyl]-1,3,4-oxadiazole]
IC50 [1, 6]: > 500 µM | IC50 [2, 7]: > 500 µM | melting point: 68 to 71 °C | IC50 [3, 8]: > 500 µM | IC50 [4, 9]: 46.9 µM | IC50 [5, 10]: 80.2 µM

CCCCCCSc1nnc(COc2cccc3cccnc23)o1 [4e, 2-(Hexylthio)-5-[(quinolin-8-yloxy)methyl]-1,3,4-oxadiazole]
IC50 [1, 6]: > 500 µM | IC50 [2, 7]: > 500 µM | IC50 [3, 8]: 210 µM | IC50 [4, 9]: 48.1 µM | IC50 [5, 10]: 75.7 µM

Clc1cccc(Cl)c1-n1cc(CSc2nnc(COc3cccc4cccnc34)o2)nn1 [12s, 2-{[(1-(2,6-Dichlorophenyl)-1H-1,2,3-triazol-4-yl)methyl]thio}-5-[(quinolin-8-yloxy)methyl]-1,3,4-oxadiazole]
IC50 [1, 6]: > 500 µM | IC50 [2, 7]: > 500 µM | melting point: 113 to 118 °C | IC50 [3, 8]: > 500 µM | IC50 [4, 9]: 38.8 µM | IC50 [5, 10]: 84.5 µM

CC(C)=CCSc1nnc(COc2cccc3cccnc23)o1 [4g, 2-[(3-Methylbut-2-en-1-yl)thio]-5-[(quinolin-8-yloxy)methyl]-1,3,4-oxadiazole]
IC50 [1, 6]: > 500 µM | IC50 [2, 7]: > 500 µM | IC50 [3, 8]: > 500 µM | IC50 [4, 9]: 34.1 µM | IC50 [5, 10]: 86.4 µM

Clc1cccc(CSc2nnc(COc3cccc4cccnc34)o2)c1 [4p, 2-[(3-Chlorobenzyl)thio]-5-[(quinolin-8-yloxy)methyl]-1,3,4-oxadiazole]
IC50 [1, 6]: > 500 µM | IC50 [2, 7]: > 500 µM | IC50 [3, 8]: > 500 µM | IC50 [4, 9]: 29.6 µM | IC50 [5, 10]: 68 µM
